US12077503B2, “Substituted cyclic amides and their use as herbicides” (FMC CORPORATION, priority 2015, dated 2024)

Key:
Assay type in all cases: in vivo
[1] = test system: barnyardgrass (Echinochloa crus-galli); experiment: Test B flooded paddy test; conditions: Echinochloa crus-galli, 250 g ai/ha, Flood; 0 to 100 scale where 0 is no effect and 100 is complete control; read-out: Barnyardgrass plant response rating
Summary of the method: (§1)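 Visual ratings (0 none to 100 complete control) are relative to untreated plants, taken 13–15 d after treatment in a greenhouse. Test material went straight into floodwater standing 3 cm above the soil, kept constant, on plants at the 2-leaf stage.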

[2] = test system: ducksalad (Heteranthera limosa); experiment: Test B flooded paddy test; conditions: Heteranthera limosa, 250 g ai/ha, Flood; 0 to 100 scale where 0 is no effect and 100 is complete control; read-out: Ducksalad plant response rating
Summary of the method: as §1

[3] = test system: sedge, umbrella (small-flower umbrella sedge, Cyperus difformis); experiment: Test B flooded paddy test; conditions: Cyperus difformis, 250 g ai/ha, Flood; 0 to 100 scale where 0 is no effect and 100 is complete control; read-out: Sedge, Umbrella plant response rating
Summary of the method: as §1

[4] = test system: rice (Oryra sativa); experiment: Test B flooded paddy test; conditions: Oryza sativa, 250 g ai/ha, Flood; 0 to 100 scale where 0 is no effect and 100 is complete control; read-out: Rice plant response rating
Summary of the method: as §1

[5] = test system: barnyardgrass (Echinochloa crus-galli); experiment: Test A postemergence; conditions: Echinochloa crus-galli, post-emergence, 240 h; for pest or weed control at 125 g/ha: 125 g ai/ha, postemergence, visual injury on 0 to 100 scale (0 no effect, 100 complete control), approx. 10 d, read-out: Barnyardgrass plant response rating; for pest or weed control at 31 g/ha: Postemergence, 31 g ai/ha, visual injury after approx. 10 d, 0 to 100 scale, 0 no effect, 100 complete control, read-out: Plant response rating, Barnyardgrass
Summary of the method: (§2)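 Preemergence soil spray on seeded pots or post-emergence spray on 1–2 leaf plants, in loam–sand blend. Greenhouse ~10 d. Visual rating 0–100 against untreated plants.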

[6] = test system: wheat (Triticum aestivum); experiment: Test A postemergence; conditions: Triticum aestivum, post-emergence, 240 h; for plant injury at 125 g/ha: 125 g ai/ha, postemergence, visual injury on 0 to 100 scale (0 no effect, 100 complete control), approx. 10 d, read-out: Wheat plant response rating; for plant injury at 31 g/ha: Postemergence, 31 g ai/ha, visual injury after approx. 10 d, 0 to 100 scale, 0 no effect, 100 complete control, read-out: Plant response rating, Wheat
Summary of the method: as §2

[7] = test system: ragweed (common ragweed, Ambrosia elatior); experiment: Test A postemergence; conditions: Ambrosia artemisiifolia, post-emergence, 240 h; for pest or weed control at 125 g/ha: 125 g ai/ha, postemergence, visual injury on 0 to 100 scale (0 no effect, 100 complete control), approx. 10 d, read-out: Ragweed plant response rating; for pest or weed control at 31 g/ha: Postemergence, 31 g ai/ha, visual injury after approx. 10 d, 0 to 100 scale, 0 no effect, 100 complete control, read-out: Plant response rating, Ragweed
Summary of the method: as §2

[8] = test system: giant foxtail (Setaria faberii); experiment: Test A postemergence; conditions: Setaria faberi, post-emergence, 240 h; for pest or weed control at 125 g/ha: 125 g ai/ha, postemergence, visual injury on 0 to 100 scale (0 no effect, 100 complete control), approx. 10 d, read-out: Foxtail, Giant plant response rating; for pest or weed control at 31 g/ha: Postemergence, 31 g ai/ha, visual injury after approx. 10 d, 0 to 100 scale, 0 no effect, 100 complete control, read-out: Plant response rating, Foxtail, Giant
Summary of the method: as §2

[9] = test system: Kochia (Kochia scoparia); experiment: Test A postemergence; conditions: Bassia scoparia, post-emergence, 240 h; for pest or weed control at 125 g/ha: 125 g ai/ha, postemergence, visual injury on 0 to 100 scale (0 no effect, 100 complete control), approx. 10 d, read-out: Kochia plant response rating; for pest or weed control at 31 g/ha: Postemergence, 31 g ai/ha, visual injury after approx. 10 d, 0 to 100 scale, 0 no effect, 100 complete control, read-out: Plant response rating, Kochia
Summary of the method: as §2

[10] = test system: Galium (catchweed bedstraw, Galium aparine); experiment: Test A postemergence; conditions: Galium, post-emergence, 240 h; for pest or weed control at 125 g/ha: 125 g ai/ha, postemergence, visual injury on 0 to 100 scale (0 no effect, 100 complete control), approx. 10 d, read-out: Galium plant response rating; for pest or weed control at 31 g/ha: Postemergence, 31 g ai/ha, visual injury after approx. 10 d, 0 to 100 scale, 0 no effect, 100 complete control, read-out: Plant response rating, Galium
Summary of the method: as §2

[11] = test system: blackgrass (Alopecurus myosuroides); experiment: Test A postemergence; conditions: Alopecurus myosuroides, post-emergence, 240 h; for pest or weed control at 125 g/ha: 125 g ai/ha, postemergence, visual injury on 0 to 100 scale (0 no effect, 100 complete control), approx. 10 d, read-out: Blackgrass plant response rating; for pest or weed control at 31 g/ha: Postemergence, 31 g ai/ha, visual injury after approx. 10 d, 0 to 100 scale, 0 no effect, 100 complete control, read-out: Plant response rating, Blackgrass
Summary of the method: as §2

[12] = test system: pigweed (Amaranthus retroflexus); experiment: Test A postemergence; conditions: Amaranthus retroflexus, post-emergence, 240 h; for pest or weed control at 125 g/ha: 125 g ai/ha, postemergence, visual injury on 0 to 100 scale (0 no effect, 100 complete control), approx. 10 d, read-out: Pigweed plant response rating; for pest or weed control at 31 g/ha: Postemergence, 31 g ai/ha, visual injury after approx. 10 d, 0 to 100 scale, 0 no effect, 100 complete control, read-out: Plant response rating, Pigweed
Summary of the method: as §2

[13] = test system: ryegrass, Italian (Italian ryegrass, Lolium multiflorum); experiment: Test A postemergence; conditions: Lolium multiflorum, post-emergence, 240 h; for pest or weed control at 125 g/ha: 125 g ai/ha, postemergence, visual injury on 0 to 100 scale (0 no effect, 100 complete control), approx. 10 d, read-out: Ryegrass, Italian plant response rating; for pest or weed control at 31 g/ha: Postemergence, 31 g ai/ha, visual injury after approx. 10 d, 0 to 100 scale, 0 no effect, 100 complete control, read-out: Plant response rating, Ryegrass, Italian
Summary of the method: as §2

[14] = test system: corn (Zea mays); experiment: Test A postemergence; conditions: Zea mays, post-emergence, 240 h; for plant injury at 125 g/ha: 125 g ai/ha, postemergence, visual injury on 0 to 100 scale (0 no effect, 100 complete control), approx. 10 d, read-out: Corn plant response rating; for Corn plant response rating (crop injury, 0 = no effect, 100 = complete kill) at 31 g/ha: Postemergence, 31 g ai/ha, visual injury after approx. 10 d, 0 to 100 scale, 100 complete control
Summary of the method: as §2

[15] = test system: barnyardgrass (Echinochloa crus-galli); experiment: Test A preemergence; conditions: Echinochloa crus-galli, pre-emergence, 240 h, 0 to 100 scale where 0 is no effect and 100 is complete control, read-out: Barnyardgrass plant response rating; for pest or weed control at 31 g/ha: 31 g ai/ha, Preemergence; for pest or weed control at 125 g/ha: 125 g ai/ha, preemergence, approx. 10 d
Summary of the method: as §2

[16] = test system: ragweed (common ragweed, Ambrosia elatior); experiment: Test A preemergence; conditions: Ambrosia artemisiifolia, pre-emergence, 240 h, 0 to 100 scale where 0 is no effect and 100 is complete control, read-out: Ragweed plant response rating; for pest or weed control at 31 g/ha: 31 g ai/ha, Preemergence; for pest or weed control at 125 g/ha: 125 g ai/ha, preemergence, approx. 10 d
Summary of the method: as §2

[17] = test system: giant foxtail (Setaria faberii); experiment: Test A preemergence; conditions: Setaria faberi, pre-emergence, 240 h, 0 to 100 scale where 0 is no effect and 100 is complete control, read-out: Foxtail, Giant plant response rating; for pest or weed control at 31 g/ha: 31 g ai/ha, Preemergence; for pest or weed control at 125 g/ha: 125 g ai/ha, preemergence, approx. 10 d
Summary of the method: as §2

[18] = test system: Kochia (Kochia scoparia); experiment: Test A preemergence; conditions: Bassia scoparia, pre-emergence, 240 h, 0 to 100 scale where 0 is no effect and 100 is complete control, read-out: Kochia plant response rating; for pest or weed control at 31 g/ha: 31 g ai/ha, Preemergence; for pest or weed control at 125 g/ha: 125 g ai/ha, preemergence, approx. 10 d
Summary of the method: as §2

[19] = test system: pigweed (Amaranthus retroflexus); experiment: Test A preemergence; conditions: Amaranthus retroflexus, pre-emergence, 240 h, 0 to 100 scale where 0 is no effect and 100 is complete control, read-out: Pigweed plant response rating; for pest or weed control at 31 g/ha: 31 g ai/ha, Preemergence; for pest or weed control at 125 g/ha: 125 g ai/ha, preemergence, approx. 10 d
[20] = test system: ryegrass, Italian (Italian ryegrass, Lolium multiflorum); experiment: Test A preemergence; conditions: Lolium multiflorum, pre-emergence, 240 h, 0 to 100 scale where 0 is no effect and 100 is complete control, read-out: Ryegrass, Italian plant response rating; for pest or weed control at 31 g/ha: 31 g ai/ha, Preemergence; for pest or weed control at 125 g/ha: 125 g ai/ha, preemergence, approx. 10 d
Summary of the method: as §2

Structure (SMILES) | pest or weed control at 250 g/ha [1] [%] | pest or weed control at 250 g/ha [2] [%] | pest or weed control at 250 g/ha [3] [%] | pest or weed control at 250 g/ha [4] [%] | pest or weed control at 125 g/ha [5] [%] | pest or weed control at 31 g/ha [5] [%] | plant injury at 125 g/ha [6] [%] | plant injury at 31 g/ha [6] [%] | pest or weed control at 125 g/ha [7] [%] | pest or weed control at 31 g/ha [7] [%] | pest or weed control at 125 g/ha [8] [%] | pest or weed control at 31 g/ha [8] [%] | pest or weed control at 125 g/ha [9] [%] | pest or weed control at 31 g/ha [9] [%] | pest or weed control at 125 g/ha [10] [%] | pest or weed control at 31 g/ha [10] [%] | pest or weed control at 125 g/ha [11] [%] | pest or weed control at 31 g/ha [11] [%] | pest or weed control at 125 g/ha [12] [%] | pest or weed control at 31 g/ha [12] [%] | other results
CSc1ccccc1NC(=O)[C@H]1C(=O)N(C)C[C@@H]1c1cc(C(F)F)cs1 [Compound 1088] | 30 | 75 | 0 | 0 | 30 | 0 | 0 | 0 | 0 | 0 | 20 | 0 | 0 | 0 | 30 | 20 | 0 | 0 | 0 | 0 | pest or weed control at 125 g/ha [13]: 0%; pest or weed control at 31 g/ha [13]: 0%; plant injury at 125 g/ha [14]: 0%; Corn plant response rating (crop injury, 0 = no effect, 100 = complete kill) at 31 g/ha [14]: 0%; pest or weed control at 31 g/ha [15]: 0%; pest or weed control at 125 g/ha [15]: 30%; pest or weed control at 31 g/ha [16]: 0%; pest or weed control at 125 g/ha [16]: 0%; pest or weed control at 31 g/ha [17]: 0%; pest or weed control at 125 g/ha [17]: 100%; pest or weed control at 31 g/ha [18]: 30%; pest or weed control at 125 g/ha [18]: 20%; pest or weed control at 31 g/ha [19]: 0%; pest or weed control at 125 g/ha [19]: 0%; pest or weed control at 31 g/ha [20]: 0%; pest or weed control at 125 g/ha [20]: 0%
CN1C[C@H](c2cc(C(F)F)cs2)[C@@H](C(=O)Nc2cnccc2C(F)(F)F)C1=O [Compound 1091] | 0 | 0 | 0 | 0 | 0 | 0 | 0 | 0 | 0 | 0 | 0 | 0 | 0 | 0 | 0 | 0 | 0 | 0 | 30 | 0 | pest or weed control at 125 g/ha [13]: 0%; pest or weed control at 31 g/ha [13]: 0%; plant injury at 125 g/ha [14]: 0%; Corn plant response rating (crop injury, 0 = no effect, 100 = complete kill) at 31 g/ha [14]: 0%; pest or weed control at 31 g/ha [15]: 0%; pest or weed control at 125 g/ha [15]: 0%; pest or weed control at 31 g/ha [16]: 100%; pest or weed control at 125 g/ha [16]: 0%; pest or weed control at 31 g/ha [17]: 50%; pest or weed control at 125 g/ha [17]: 100%; pest or weed control at 31 g/ha [18]: 20%; pest or weed control at 125 g/ha [18]: 40%; pest or weed control at 31 g/ha [19]: 10%; pest or weed control at 125 g/ha [19]: 0%; pest or weed control at 31 g/ha [20]: 0%; pest or weed control at 125 g/ha [20]: 0%
